Results from ChEMBL document CHEMBL1149283, “Design, synthesis and evaluation of a PLG tripeptidomimetic based on a pyridine scaffold” (J Med Chem, 2004).
Where a SMILES comes first, the peptide text is derived from it.

Columns and labels:
Format in all cases: functional, cell-based
Details in all cases: NIH3T3
[1] = target: D(2) dopamine receptor (Homo sapiens) (UniProt P14416); assay: Activity at human dopamine D2 receptor in NIH/3T3 cells assessed as enhancement of NPA-stimulated beta-galactosidase activity at 10 nM after 5 days by R-SAT assay
[2] = target: D(2) dopamine receptor (Homo sapiens) (UniProt P14416); assay: Activity at human dopamine D2 receptor in NIH/3T3 cells assessed as enhancement of NPA-stimulated beta-galactosidase activity at 100 nM after 5 days by R-SAT assay
[3] = target: D(2) dopamine receptor (Homo sapiens) (UniProt P14416); assay: Activity at human dopamine D2 receptor in NIH/3T3 cells assessed as enhancement of NPA-stimulated beta-galactosidase activity at 50 nM after 5 days by R-SAT assay

Sequence of D(2) dopamine receptor (Homo sapiens) (P14416 whole entry): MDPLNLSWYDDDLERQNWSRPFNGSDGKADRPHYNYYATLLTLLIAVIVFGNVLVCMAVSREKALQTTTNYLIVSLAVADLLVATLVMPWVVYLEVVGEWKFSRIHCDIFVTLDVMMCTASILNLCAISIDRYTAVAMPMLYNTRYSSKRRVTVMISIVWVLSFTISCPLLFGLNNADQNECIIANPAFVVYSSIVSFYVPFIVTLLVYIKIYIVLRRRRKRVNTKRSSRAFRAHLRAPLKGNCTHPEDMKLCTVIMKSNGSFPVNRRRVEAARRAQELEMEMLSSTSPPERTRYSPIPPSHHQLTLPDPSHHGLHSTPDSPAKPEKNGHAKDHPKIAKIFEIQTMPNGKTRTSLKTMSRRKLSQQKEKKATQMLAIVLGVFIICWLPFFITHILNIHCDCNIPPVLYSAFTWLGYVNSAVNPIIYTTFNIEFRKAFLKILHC

Row | SMILES | Activity [1] | Activity [2] | Activity [3]
1 | CC(C)C[C@H](NC(=O)[C@@H]1CCCN1)C(=O)NCC(N)=O (H-Pro-Leu-Gly-NH2) | 115% | 98% | 104%
2 | CC(C)Cc1c(C(=O)[C@@H]2CCCN2)ccnc1OCC(N)=O | 146% | 117% | 135%
